Source: US7714014B2, “Targeting GLI proteins in human cancer by small molecules” (The Regents of the University of California, priority 2005, dated 2010)

What was measured:
[1] = test system: Primary cultured mesothelioma; assay: Apoptosis analysis (Annexin V FITC, flow cytometry); assay type: cell-based, human; settings: 3 days
Method: Fresh cancer tissue and adjacent normal tissue from patients undergoing curative primary resection of their tumors were collected at the time of surgery (IRB approval H8714-15319-040), and immediately snap-frozen in liquid nitrogen. These tissue samples were kept at −170° C. in a liquid nitrogen freezer until further use. Primary tissue cultures were prepared as follows: Fresh cancer tissue was obtained with consent from patients undergoing resection, cut into small pieces (1-2 mm in diameter), and then digested with Collagenase A (Roche Applied Science, Indianapolis, Ind.) at room temperature for 2 hours according to manufacture's protocol. Single cells from the digestion were spun down and the cell pellets were washed twice using RPMI 1640 supplemented with 10% fetal bovine serum, penicillin (100 IU/ml) and streptomycin (100 μg/ml). Then, the cells were resuspended in the same medium and cultured in 6-well plates at 37° C. in a humid incubator with 5% CO2 until they were ready for further treatments.
Apoptosis was analyzed by using an Annexin V FITC Apoptosis Detection Kit (Biosource, Camarillo, Calif.), according to the manufacturer's protocol. After treatment with different small molecule compounds at various concentrations for about 3 days, cells were harvested by trypsinization, stained and immediately analyzed by flow cytometry (FACScan; Decton Dickinson, Franklin Lake, N.J.). Early apoptotic cells with exposed phosphatidylserine but intact cell membranes will bind to Annexin V-FITC, but not propidium iodide (PI). Cells in necrotic or late apoptotic stages will be labeled with both Annexin V-FITC and PI. “% apoptotic cells” or “% apoptosis” refers to the combined early and late apoptotic cells.
Next, flow cytometry was used to examine apoptosis after the treatment of small molecule compound FN1-5 at different doses (10 μM, 30 μM and 50 μM) for 3 days in primary cultured human mesothelioma cells freshly made from tissue samples.

melanoma cell line LOX = assay: Cell survival assay (crystal violet); assay type: cell-based, human; settings: for cell killing effect: 3 days
Method: (§1) Typically, the small molecule compounds of the present invention were dissolved in DMSO at a concentration of 30 mM. The small molecule compounds were then tested under cell culture conditions at different concentrations ranging from 0, 10, 30, 50, to 100 uM. To determine cell survival after treatment, the cells were incubated with the small molecule compounds in 6-well plates for about 3 days. After removal of the cell culture medium, 1-ml of 0.5% crystal violet solution (prepared in 20% ethanol and 20% methanol) was added to stain the cells for 5 min. Then the crystal violet solution was rinsed clean with tap water. Cell survival was estimated based on the density of crystal stained plates.
The effect of small molecule compounds FN1-5, FN1-8, FN1-7, FN1-9U, and FN1-9S was tested using a cytotoxicity assay and the melanoma cell line LOX. LOX cells were plated in 6-well plates and incubated with 100 μM of each compound (stocks were dissolved in DMSO at 30 mM) for 3 days, as described herein. […] Live cells were stained by 0.5% crystal violet.
Cell killing was also tested using human melanoma cell line LOX and different doses of the small molecule compounds FN1-5 and FN1-8. LOX cells were plated in 6-well plates and incubated with 10, 30, and 50 μM of each compound for 3 days, as described herein.

[2] = test system: human pancreatic cancer cell lines L3.6sl, Panc4.21, BxPC3, and CFPAC-1; assay: Cell survival assay (crystal violet); assay type: cell-based; settings: for cell killing: 50 μM, all pancreatic lines analyzed
Method: as §1
The cell-based cytotoxicity assay described herein was used to determine the effect of small molecule compounds FN1-5 and FN1-8 on the human pancreatic cancer cell lines L3.6sl, Panc4.21, BxPC3, and CFPAC-1. Viability of these cells was analyzed after treatment with 10, 30 and 50 μM FN1-5 or FN1-8. […] However, cell killing mediated by FN1-5 in Panc4.21 was less when compared to its effect on the three other pancreatic cancer cell lines.

[3] = test system: human renal cell carcinoma cell lines 786-O, Caki, and OMRC3; assay: Cell survival assay (crystal violet); assay type: cell-based; settings: for cell killing: 50 μM
Method: as §1
The cell-based cytotoxicity assay described herein was used to determine the effect of small molecule compounds FN1-5 and FN1-8 in the human renal cell carcinoma cell lines 786-O, Caki, and OMRC3. Viability of these cells was analyzed after treatment with 10, 30 and 50 μM FN1-5 or FN1-8.

[4] = test system: human Wnt2 promoter in NSCLC cell line A549; assay: Wnt2 promoter-luciferase reporter assay; assay type: cell-based; settings: for Wnt2 promoter activity: A549, 30 μM, 18-24 hours
Method: One day before transfection, cells (1×10^5) were plated in 12-well plates with growth medium without antibiotics. When cells reached 80-90% of confluence they were co-transfected using 0.5 μg of each promoter construct in pGL3Basic vector and 0.025 μg pRL-TK Vector (Promega; Madison, Wis.) containing Renilla Luciferase as an internal control for the transformation efficiency. Lipofectamine 2000™ (Invitrogen Life Technologies) was used to mediate transfection for about 6 hours. Then the medium was replaced with fresh medium containing various small molecule compounds at a concentration of 30 μM, and the resulting cells were cultured for an additional 18-24 hours and subjected to luciferase assay. Briefly, cells were lysed in a lysis buffer and Firefly and Renilla Luciferase activities in cells of each well, were measured using Dual-Luciferase Assay System (Promega) and an illuminometer. The measured luciferase activities were normalized to pRL-TK Vector activity and were given relative to the basal activity of empty pGL3-Basic Vector, which was set to unity. The data shown represent mean values (±S.D.). All measurements were performed in triplicate and repeated in at least three independent experiments. The human Wnt-2 promoter-luciferase construct, the human SOCS3 promoter-Luciferase construct and the human Gremlin promoter-luciferase construct were cloned and characterized in the laboratory of Dr. Jablons at the University of California, San Francisco (San Francisco, Calif.; He et al., Biochem Biophy Res Comm, 2003; and unpublished data). The 6GLI-TKO-luciferase construct (containing 6 repeats of consensus GLI DNA binding sequence) was kindly provided by Dr. Matthias Hebrok's laboratory at the University of California, San Francisco (San Francisco, Calif.).
To examine the specificity of the small molecule compounds of the invention, the compounds were tested for regulate the expression of Gli down-stream target genes. […] The human Wnt2 promoter was cloned and found to contain putative Gli-DNA binding sites within its promoter region (data not shown). […]

[5] = test system: Tcf-mediated gene transcription (canonical Wnt signaling) in colon cancer cell line SW480; assay: TOPFLASH (TOP/FOP) assay; assay type: cell-based, human
Method: Cells were plated in 12-well plates. The TOPFLASH or FOPFLASH reporter plasmid (Upstate; Charlottesville, Va.) was transfected transiently into cells as described above. Tcf-mediated gene transcription was determined by the ratio of pTOPFLASH:pFOPFLASH luciferase activity, each was normalized to luciferase activities of the pRL-TK reporter (co-transfected internal control). All experiments were performed in triplicate, and repeated three times.
Regulation of TOP/FOP activity by the same compounds as described above was also analyzed in the colon cancer cell line SW480.

Row | Compound | % of apoptotic cells ([1]; 10 μM) | % of apoptotic cells ([1]; 30 μM) | % of apoptotic cells ([1]; 50 μM) | cell killing effect (melanoma cell line LOX; 50 μM) | cell killing effect (melanoma cell line LOX; 100 μM) | cell killing [2] | cell killing in Panc4.21 compared to the three other pancreatic cancer cell lines ([2]; Panc4.21) | cell killing [3] | Wnt2 promoter activity [4] | TOP/FOP activity [5] | cell killing potency compared with FN1-5 (melanoma cell line LOX; compared at 30 μM) | cell killing potency compared with FN1-5 [3] | Wnt2 expression (Wnt2 promoter-luciferase reporter activity assay) ([4]; after FN1-8 treatment, data not shown) | reduction of TOP/FOP activity [5]
1 | O=C(NCCCCCO)C1C(c2ccccc2)=NN(c2ccccc2)C1c1ccccc1 (stereo not shown) [FN1-5, N-(5-Hydroxypentyl)-1,3,5-triphenyl-4,5-dihydro-pyrazole-4-carboxyamide] | 12.3% | 15.8% | 18.3% | Dramatic cell killing effect | dramatic cell killing effect | dramatic cell killing | less | dramatic cell killing | down-regulate Wnt2 promoter activity dramatically | lesser effect |  |  |  | 
2 | O=C(NCCc1ccc(O)cc1)C1C(c2ccccc2)=NN(c2ccccc2)C1c1ccccc1 (stereo not shown) [FN1-8, N-(2-(4-Hydroxyphenyl)ethyl)-1,3,5-triphenyl-4,5-dihydro-pyrazole-4-carboxyamide] | 13.2% | 14.7% | 33.6% | Dramatic cell killing effect | dramatic cell killing effect | dramatic cell killing |  | dramatic cell killing | down-regulate Wnt2 promoter activity dramatically |  | more potent than FN1-5 | more potent | down-regulated | about 32%
